Test results reported in patent US20030225152A1, “3-(Arylamino)methylene-1, 3-dihydro-2h-indol-2-ones as kinase inhibitors” (priority 2001, published 2003).

Legend:
[1] = target: T1, cytoplasmic domain of the human VEGF receptor (VEGFR-2) (Homo sapiens, UniProt P35968); assay: KDR Assay; assay type: biochemical; conditions: His-VEGFR-2; 3.6 μM ATP
T1 construct: The cytoplasmic domain of the human VEGF receptor (VEGFR-2) was expressed as a Histidine-tagged fusion protein; Histidine tag
Method: The cytoplasmic domain of the human VEGF receptor (VEGFR-2) was expressed as a Histidine-tagged fusion protein following infection of insect cells using an engineered baculovirus. His-VEGFR-2 was purified to homogeneity, as determined by SDS-PAGE, using nickel resin chromatography. Kinase assays were performed in 96 well microtiter plates that were coated overnight with 30 μg of poly-Glu-Tyr (4:1) in 10 mM Phosphate Buffered Saline (PBS), pH 7.2-7.4. The plates were incubated with 1% BSA and then washed four times with PBS prior to starting the reaction. Reactions were carried out in 120 μL reaction volumes containing 3.6 μM ATP in kinase buffer (50 mM Hepes buffer pH 7.4, 20 mM MgCl2, 0.1 mM MnCl2 and 0.2 mM Na3VO4). Test compounds were reconstituted in 100% DMSO and added to the reaction to give a final DMSO concentration of 5%. Reactions were initiated by the addition 0.5 ng of purified protein. Following a ten minute incubation at 25° C., the reactions were washed four times with PBS containing 0.05% Tween-20. 100 μl of a monoclonal anti-phosphotyrosine antibody-peroxidase conjugate was diluted 1:10000 in PBS-Tween-20 and added to the wells for 30 minutes. Following four washes with PBS-Tween-20, 100 μl of O-phenylenediamine Dihydrochloride in Phosphate-citrate buffer, containing urea hydrogen peroxide, was added to the wells for 7 minutes as a colorimetric substrate for the peroxidase. The reaction was terminated by the addition of 100 μl of 2.5N H2SO4 to each well and read using a microplate ELISA reader set at 492 nm. IC50 values for compound inhibition were calculated directly from graphs of optical density (arbitrary units) versus compound concentration following subtraction of blank values.

[2] = tested on: VEGF induced increases in intracellular calcium levels in HUVEC (human umbilical vein endothelial cells); assay: VEGF Stimulated Ca++ Signal in vitro (FLIPR); assay type: cell-based; conditions: VEGF 5 ng/mL; for IC50: 0.01 to 10.0 μM
Outline: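 HUVEC loaded with Fluo-4 (45 min, 37° C.), washed, then pre-incubated 30 min with compound (10 μM single dose or 0.01–10.0 μM; 0.1% DMSO) before 5 ng/mL VEGF. Fluorescence at 516 nm read by FLIPR; IC50 from % inhibition of max-min VEGF response.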

T1 sequence (P35968 786-1356): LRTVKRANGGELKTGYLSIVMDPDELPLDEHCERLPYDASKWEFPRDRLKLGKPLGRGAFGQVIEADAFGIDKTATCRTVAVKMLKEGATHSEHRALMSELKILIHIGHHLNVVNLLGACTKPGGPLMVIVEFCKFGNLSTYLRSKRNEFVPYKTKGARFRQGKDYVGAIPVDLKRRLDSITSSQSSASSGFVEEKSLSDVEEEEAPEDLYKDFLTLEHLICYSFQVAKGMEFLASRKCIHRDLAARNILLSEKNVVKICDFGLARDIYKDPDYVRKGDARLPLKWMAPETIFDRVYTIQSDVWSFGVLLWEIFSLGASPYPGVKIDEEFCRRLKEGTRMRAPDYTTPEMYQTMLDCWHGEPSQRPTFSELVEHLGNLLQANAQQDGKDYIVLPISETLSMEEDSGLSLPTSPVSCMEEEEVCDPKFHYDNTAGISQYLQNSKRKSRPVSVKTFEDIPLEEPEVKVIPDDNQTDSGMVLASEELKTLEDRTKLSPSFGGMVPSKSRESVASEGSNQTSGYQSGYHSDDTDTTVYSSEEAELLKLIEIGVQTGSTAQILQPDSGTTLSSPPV

Compound | IC50 [1] | IC50 [2] | inhibition at 10 µM ([2]; Homo sapiens) | IC50 ([2]; Homo sapiens)
O=C1Nc2ccccc2C1=CNc1ccc(CO)cc1 [Example 88, 3-[(4-Hydroxymethyl-phenylamino)-methylene]-1,3-dihydro-indol-2-one] | 0.41 µM | 1 µM | 97.5% | ≤ 1 µM
Cc1cccc2c1C(=CNc1ccc3cn[nH]c3c1)C(=O)N2 [Example 90, 3-[(1H-Indazol-6-ylamino)-methylene]-4-methyl-1,3-dihydro-indol-2-one] | 0.22 µM |  | 97.8% | 
COc1ccc(NC=C2C(=O)Nc3cccc(C)c32)cc1F [Example 91, 3-[(3-Fluoro-4-methoxy-phenylamino)-methylene]-4-methyl-1,3-dihydro-indol-2-one] | 0.24 µM |  | 93.5% | 3.02 µM
Cc1cccc2c1C(=CNc1ccc3ncsc3c1)C(=O)N2 [Example 92, 3-(Benzothiazol-6-ylaminomethylene)-4-methyl-1,3-dihydro-indol-2-one] | 0.15 µM |  | 69% | 1.77 µM
COC(=O)c1ccc(NC=C2C(=O)Nc3cccc(C)c32)cc1OC [Example 93, 2-Methoxy-4-[(4-methyl-2-oxo-1,2-dihydro-indol-3-ylidenemethyl)-amino]-benzoic acid methyl ester] | 0.63 µM |  | 51.5% | 6.62 µM
COc1cccc(NC=C2C(=O)Nc3ccccc32)c1 [Example 94, 3-[(3-Methoxy-phenylamino)-methylene]-1,3-dihydro-indol-2-one] | 0.64 µM |  | 92.5% | 3.88 µM
Cc1cccc2c1C(=CNc1ccc(O)cc1)C(=O)N2 [Example 96, 3-[(4-Hydroxy-phenylamino)-methylene]-4-methyl-1,3-dihydro-indol-2-one] | 0.2 µM |  | 97% | 1.68 µM
Cc1cccc2c1C(=CNc1ccc3cc[nH]c3c1)C(=O)N2 [Example 97, 3-[(1H-Indol-6-ylamino)-methylene]-4-methyl-1,3-dihydro-indol-2-one] | 0.2 µM |  | 96.5% | 1.86 µM
Cc1cccc2c1C(=CNc1ccc(CO)cc1)C(=O)N2 [Example 99, 3-[(4-Hydroxymethyl-phenylamino)-methylene]-4-methyl-1,3-dihydro-indol-2-one] | 0.21 µM |  | 97.8% | 
COc1ccc(NC=C2C(=O)Nc3ccc(Cl)cc32)cc1OC [Example 102, 5-Chloro-3-[(3,4-dimethoxyphenylamino)-methylene]-1,3-dihydro-indol-2-one] | 0.65 µM |  | 82.5% | 5.91 µM
O=C1Nc2ccc(Cl)cc2C1=CNc1ccc2cn[nH]c2c1 [Example 103] | 0.48 µM |  | 96.6% | 1.04 µM
O=C1Nc2ccc(Cl)cc2C1=CNc1ccc(N2CCOCC2)cc1 [Example 106, 5-Chloro-3-[(4-morpholinophenylamino)-methylene]-1,3-dihydro-indol-2-one] | 0.23 µM | 0.6 µM | 96.6% | ≤ 1 µM
CCN(CC)Cc1cc(NC=C2C(=O)Nc3ccc(Cl)cc32)ccc1O [Example 109, 5-Chloro-3-[(4-hydoxy-3-(diethylaminomethyl)phenylamino)-methylene]-1,3-dihydro-indol-2-one] | 0.6 µM |  | 96.5% | 1.7 µM
O=C1Nc2ccc(Cl)cc2C1=CNc1ccc2[nH]ccc2c1 [Example 110, 5-(5-Chloro-2-oxo-1,2-dihydro-indol-3-ylidenemethylamino)indole] | 0.57 µM |  | 95% | 1.55 µM
O=C1Nc2ccc(Cl)cc2C1=CNc1ccc(CO)cc1 [Example 111, 5-Chloro-3-[(4-(hydoxymethyl)phenylamino)-methylene]-1,3-dihydro-indol-2-one] | 0.43 µM |  | 98.5% | 1.17 µM
Cc1cccc2c1C(=CNc1ccc(CCO)cc1)C(=O)N2 [Example 113, 3-{[4-(2-Hydroxy-ethyl)-phenylamino]-methylene}-4-methyl-1,3-dihydro-indol-2-one] | 0.2 µM |  | 97.5% | 

Compound | IC50 [1] | IC50 [2] | inhibition at 10 µM ([2]; Homo sapiens) | IC50 ([2]; Homo sapiens)
CC(=O)Nc1ccc(NC=C2C(=O)Nc3ccc(Cl)cc32)cc1 [Example 114, N-{4-[(5-Chloro-2-oxo-1,2-dihydro-indol-3-ylidenemethyl)-amino]-phenyl}-acetamide] | 0.92 µM |  | 89% | 1.93 µM
O=C(O)Cc1ccc(NC=C2C(=O)Nc3ccc(Cl)cc32)cc1 [Example 115, {4-[(5-Chloro-2-oxo-1,2-dihydro-indol-3-ylidenemethyl)-amino]-phenyl}-acetic acid] | 0.47 µM |  | 98.2% | 3.08 µM
NS(=O)(=O)c1ccc(NC=C2C(=O)Nc3ccc(Cl)cc32)cc1 [Example 116, 4-[(5-Chloro-2-oxo-1,2-dihydro-indol-3-ylidenemethyl)-amino]-benzenesulfonamide] | 0.98 µM |  | 99.4% | 1.64 µM
COc1ccc(NC=C2C(=O)Nc3cccc(C)c32)cc1O [Example 117, 3-[(3-Hydroxy-4-methoxy-phenylamino)-methylene]-4-methyl-1,3-dihydro-indol-2-one] | 0.31 µM |  | 97.7% | 
Cc1cccc2c1C(=CNc1ccc(OC(F)F)cc1)C(=O)N2 [Example 119, 3-{[4-(1,1-Difluoro-methoxy)-phenylamino]-methylene}-4-methyl-1,3-dihydro-indol-2-one] | 0.53 µM |  | 89.3% | 1.34 µM
CCOc1ccc(NC=C2C(=O)Nc3cccc(C)c32)cc1 [Example 122, 3-[(4-Ethoxy-phenylamino)-methylene]-4-methyl-1,3-dihydro-indol-2-one] | 0.37 µM |  | 71.7% | 1.54 µM
Cc1cccc2c1C(=CNc1ccc(C(C)C)cc1)C(=O)N2 [Example 123, 3-[(4-Isopropyl-phenylamino)-methylene]-4-methyl-1,3-dihydro-indol-2-one] | 0.59 µM |  | 49.9% | 4.43 µM
Cc1cccc2c1C(=CNc1ccc3c(c1)OCO3)C(=O)N2 [Example 124, 3-(Benzo[1,3]dioxol-5-ylaminomethylene)-4-methyl-1,3-dihydro-indol-2-one] | 0.52 µM |  | 71.9% | 1.96 µM
Cc1ccc(NC=C2C(=O)Nc3cccc(C)c32)cc1O [Example 125, 3-[(3-Hydroxy-4-methyl-phenylamino)-methylene]-4-methyl-1,3-dihydro-indol-2-one] | 0.67 µM |  | 96.5% | 1.86 µM
COc1ccc(NC=C2C(=O)Nc3cccc(C)c32)cc1OC [Example 126, 3-[(3,4-Dimethoxy-phenylamino)-methylene]-4-methyl-1,3-dihydro-indol-2-one] | 0.34 µM |  | 95.2% | 1.22 µM
Cc1cccc2c1C(=CNc1ccc(C#N)cc1)C(=O)N2 [Example 128, 4-[(4-Methyl-2-oxo-1,2-dihydro-indol-3-ylidenemethyl)-amino]-benzonitrile] | 0.46 µM |  | 42.9% | 8.26 µM
CC(=O)Nc1ccc(NC=C2C(=O)Nc3cccc(C)c32)cc1 [Example 130, N-{4-[(4-Methyl-2-oxo-1,2-dihydro-indol-3-ylidenemethyl)-amino]-phenyl}-acetamide] | 0.38 µM | 0.57 µM | 97.3% | ≤ 1 µM
Cc1cccc2c1C(=CNc1ccc(CC(=O)O)cc1)C(=O)N2 [Example 131, {4-[(4-Methyl-2-oxo-1,2-dihydro-indol-3-ylidenemethyl)-amino]-phenyl}-acetic acid] | 0.77 µM |  | 96.7% | 1.55 µM
CCOC(=O)Nc1ccc(NC=C2C(=O)Nc3ccccc32)cc1O [Example 134, {2-Hydroxy-4-[(2-oxo-1,2-dihydro-indol-3-ylidenemethyl)-amino]-phenyl}-carbamic acid ethyl ester] | 1.12 µM |  | 83.1% | 7.39 µM
COc1ccc(NC=C2C(=O)Nc3cccc(C)c32)c(F)c1 [Example 135, 3-[(2-Fluoro-4-methoxy-phenylamino)-methylene]-4-methyl-1,3-dihydro-indol-2-one] | 7.77 µM |  | 28% | 
